Assay results as given in patent publication US20260015350A1, “AZAQUINAZOLINE PAN-KRAS INHIBITORS” (Mirati Therapeutics, Inc., priority 2022, published 2026).

How the values were obtained:
[1] = test system: KRas-mediated phosphorylation of ERK in HCT116 cells; test: Inhibition of KRas-mediated phosphorylation of ERK (Cisbio HTRF pERK), HCT116 cells; type: cell-based; details: Homo sapiens, HCT-116, HTRF pERK
Outline: (§1)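 6,000 cells/well; cpd 10 uM top, 3-fold x10, 0.8% DMSO final; 3 hr incubation; Min ctrl Trametinib 0.2 uM; lysis 40 min 4° C shaking; d2 + Cryptate Ab mix, 2 hr RT; HTRF read.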

KRas^G12S = biological target: T1, KRas^G12S (Homo sapiens, UniProt P01116, G12S); test: KRas binding assay (TR-FRET tracer displacement), KRas G12S; details: TR-FRET tracer displacement, KRas G12S
T1 construct: Biotinylated KRas (corresponding to amino acids 1-169, produced at Accelegan Inc.); biotin (biotinylated); purchased Accelegan Inc
T1 sequence (P01116 1-169 isoform P01116-2 G12S): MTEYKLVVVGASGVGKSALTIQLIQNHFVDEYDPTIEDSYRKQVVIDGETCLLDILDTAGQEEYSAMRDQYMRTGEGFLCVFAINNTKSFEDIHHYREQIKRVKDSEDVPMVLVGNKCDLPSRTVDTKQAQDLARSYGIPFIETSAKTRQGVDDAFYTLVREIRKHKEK

[2] = test system: KRas-mediated phosphorylation of ERK in H358 cells; test: Inhibition of KRas-mediated phosphorylation of ERK (Cisbio HTRF pERK), H358 cells; type: cell-based; details: Homo sapiens, NCI-H358, HTRF pERK
Outline: (§2)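 Min control wells contained 0.2 uM Trametinib, while test compounds ran as 10 doses (3-fold, top 10 uM; 0.8% DMSO final) on cells for 3 hrs. After 40 mins lysis at 4° C, lysates were probed with HTRF antibodies for 2 hrs at room temperature.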

[3] = test system: KRas-mediated phosphorylation of ERK in H727 cells; test: Inhibition of KRas-mediated phosphorylation of ERK (Cisbio HTRF pERK), H727 cells; type: cell-based; details: Homo sapiens, NCI-H727, H727 cells; HTRF pERK
Outline: as §2

KRas^G12C = biological target: T2, KRas^G12C (Homo sapiens, UniProt P01116, G12C); test: KRas binding assay (TR-FRET tracer displacement), KRas G12C; details: TR-FRET tracer displacement, KRas G12C
T2 construct: Biotinylated KRas (corresponding to amino acids 1-169, produced at Accelegan Inc.); biotin (biotinylated); purchased Accelegan Inc
T2 sequence (P01116 1-169 isoform P01116-2 G12C): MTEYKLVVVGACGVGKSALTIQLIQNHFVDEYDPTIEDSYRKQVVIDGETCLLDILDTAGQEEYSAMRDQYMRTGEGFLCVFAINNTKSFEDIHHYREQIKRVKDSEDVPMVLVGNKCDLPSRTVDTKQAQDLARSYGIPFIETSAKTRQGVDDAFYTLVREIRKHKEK

[4] = test system: KRas-mediated phosphorylation of ERK in A549 cells; test: Inhibition of KRas-mediated phosphorylation of ERK (Cisbio HTRF pERK), A549 cells; type: cell-based; details: Homo sapiens, HTRF pERK
Outline: as §1

KRas^G12D = biological target: T3, KRas^G12D (Homo sapiens, UniProt P01116, G12D); test: KRas binding assay (TR-FRET tracer displacement), KRas G12D
T3 construct: Biotinylated KRas (corresponding to amino acids 1-169, produced at Accelegan Inc.); biotin (biotinylated); purchased Accelegan Inc
T3 sequence (P01116 1-169 isoform P01116-2 G12D): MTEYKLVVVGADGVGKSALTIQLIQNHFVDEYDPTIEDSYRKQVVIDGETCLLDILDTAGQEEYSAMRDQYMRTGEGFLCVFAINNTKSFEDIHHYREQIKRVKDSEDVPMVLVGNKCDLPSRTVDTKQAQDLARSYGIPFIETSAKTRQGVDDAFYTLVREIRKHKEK

[5] = test system: KRas-mediated phosphorylation of ERK in AsPC-1 cells; test: Inhibition of KRas-mediated phosphorylation of ERK (Cisbio HTRF pERK), AsPC-1 cells; type: cell-based; details: Homo sapiens, ASPC1, AsPC-1 cells; HTRF pERK
Outline: as §2

[6] = test system: KRas-mediated phosphorylation of ERK in H2009 cells; test: Inhibition of KRas-mediated phosphorylation of ERK (Cisbio HTRF pERK), H2009 cells; type: cell-based; details: Homo sapiens, NCI-H2009
Description: Inhibition of KRas Phosphorylation of ERK (HTRF) by Exemplary Compounds of Formula (I)
Cisbio HTRF Advanced PERK Assay Catalog #64AERPEH
1. To harvest cells from flask using 0.05% Trypsin/EDTA solution. Add 10 mL of media to stop trypsinizing. Pipette the cells into a conical bottom 50 mL centrifuge tube and centrifuge 5 min×1000 rpm.
2. Re-suspend the cell pellet in media, take a cell count, and then adjust the cell density using fresh media.
3. Seed 6,000 cells into cell culture plate with 50 μL media. […]
4. Incubate cell plate overnight in a 37° C., 5% CO2 incubator.
1. Use Tecan to complete the compound addition. Compounds start from 10 uM top, 3-fold dilution, and 10 doses. The final DMSO concentration is 0.8%. Dispensed 0.2 uM Trametinib as Min control.
2. Incubate cell plate for 3 hrs in the incubator.
Detection with Cisbio pERK HTRF Kit
1. Dilute 1 volume of 4× lysis buffer with 3 volumes of deionized water. Then, add 100× the blocking reagent. Keep lysis buffer on the ice.
2. At the end of the compound treatment, flick-off the media.
3. Add 35 μL of lysis buffer per well using a Multidrop Combi. Then place on a plate agitator shaking at 300 rpm at 4° C. for 40 mins.
4. Make up the HTRF antibody buffer. For each assay plate, mix 50 μL of d2-conjugate antibody with 950 μL of detection buffer. Similarly, mix 50 μL of Cryptate antibody with 950 μL of detection buffer. Then mix the two diluted antibodies together.
5. Dispense 3.4 μL the antibody buffer to wells of an empty assay plate. Seal the plate and centrifuge plate 30 sec×1000 rpm.
6. At the end of the 4° C. lysis, centrifuge the lysate plates 3 mins×1500 rpm.
7. Use the Bravo to transfer 13.6 μL of lysate from cell culture plate to assay plate. Then incubate assay plate for 2 hrs at room temperature.
8. At the end of incubation, read plate on the Envision after centrifuging plate 30 sec×1000 rpm.

KRas^WT = biological target: T4, KRas^WT (Homo sapiens, UniProt P01116); test: KRas binding assay (TR-FRET tracer displacement), KRas WT; details: TR-FRET tracer displacement, KRas WT
T4 construct: Biotinylated KRas (corresponding to amino acids 1-169, produced at Accelegan Inc.); biotin (biotinylated); purchased Accelegan Inc
T4 sequence (P01116 1-169 isoform P01116-2): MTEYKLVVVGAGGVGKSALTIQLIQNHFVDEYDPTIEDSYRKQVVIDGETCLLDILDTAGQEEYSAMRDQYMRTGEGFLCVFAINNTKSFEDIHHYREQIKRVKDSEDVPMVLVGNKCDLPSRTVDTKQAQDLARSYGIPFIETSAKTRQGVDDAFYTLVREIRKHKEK

KRas^G12V = biological target: T5, KRas^G12V (Homo sapiens, UniProt P01116, G12V); test: KRas binding assay (TR-FRET tracer displacement), KRas G12V
T5 construct: Biotinylated KRas (corresponding to amino acids 1-169, produced at Accelegan Inc.); biotin (biotinylated); purchased Accelegan Inc
T5 sequence (P01116 1-169 isoform P01116-2 G12V): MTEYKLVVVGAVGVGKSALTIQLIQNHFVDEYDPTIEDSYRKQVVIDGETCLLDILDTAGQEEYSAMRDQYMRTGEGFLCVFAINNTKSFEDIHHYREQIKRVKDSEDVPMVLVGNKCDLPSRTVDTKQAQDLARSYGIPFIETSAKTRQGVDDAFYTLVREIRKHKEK

[7] = test system: KRas-mediated phosphorylation of ERK in H460 cells; test: Inhibition of KRas-mediated phosphorylation of ERK (Cisbio HTRF pERK), H460 cells; type: cell-based; details: Homo sapiens, NCI-H460, HTRF pERK
Outline: as §2

[8] = test system: KRas-mediated phosphorylation of ERK in MKN1 cells; test: Inhibition of KRas-mediated phosphorylation of ERK (Cisbio HTRF pERK), MKN1 cells; type: cell-based; details: Homo sapiens, MKN-1
Outline: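 Seeding density was 6,000 cells/well; medium RPMI, 10% FBS. Read-out by homogeneous time-resolved fluorescence (pERK) after 4 hours covered at room temperature.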

IC50 [1] [nM]	IC50 (KRas^G12S) [nM]	IC50 [2] [nM]	IC50 [3] [nM]	IC50 (KRas^G12C) [nM]	IC50 [4] [nM]	IC50 (KRas^G12D) [nM]	IC50 [5] [nM]	IC50 [6] [nM]	IC50 (KRas^WT) [nM]	IC50 (KRas^G12V) [nM]	IC50 [7] [nM]	IC50 [8] [nM]	Compound
7	< 2	1	4	< 2	3	< 2	9	1	< 2	< 2	4	0.2	C/C=C1\CN2CCCC2(COc2nc(N3C[C@@H]4C[C@H](C3)[C@H](O)C4)c3cnc(-c4cc(O)cc5ccc(F)c(CC)c45)c(F)c3n2)C1 (stereo partly drawn) [Example 938, (1R,5R,6R)-3-(7-(8-ethyl-7-fluoro-3-hydroxynaphthalen-1-yl)-2-(((Z)-2-ethylidenetetrahydro-1H-pyrrolizin-7a(5H)-yl)methoxy)-8-fluoropyrido[4,3-d]pyrimidin-4-yl)-3-azabicyclo[3.2.1]octan-6-ol]
3	< 2	1	2	< 2	2	< 2	1	1	< 2	< 2	2	0.1	C=C1CN2CCCC2(COc2nc(N3CCCC4(CCO4)C3)c3cnc(-c4cc(O)cc5ccc(F)c(CC)c45)c(F)c3n2)C1 (centres unmarked) [Example 941, 5-ethyl-6-fluoro-4-(8-fluoro-2-((2-methylenetetrahydro-1H-pyrrolizin-7a(5H)-yl)methoxy)-4-(1-oxa-6-azaspiro[3.5]nonan-6-yl)pyrido[4,3-d]pyrimidin-7-yl)naphthalen-2-ol]
